Converted amounts (≈) assume the structure as drawn.
Key:
Colo-205 (Colon cancer) = test: MTT assay, Colo-205; format: cell-based; settings: Homo sapiens, COLO 205; MTT, 48 hrs; read-out: Colo-205 IC50
Protocol: (§1) A431 (Skin cancer), Colo-205 (Colon cancer), A549 (Lung cancer) cell lines were obtained from National Center for Cell science (NCCS), Pune, India. DMEM (Dulbeccos Modified Eagles Medium), MTT [3-(4,5-dimethylthiazol-2-yl)-2,5-diphenyl tetrazolium bromide], Trypsin, EDTA were purchased from Sigma Chemicals Co (St. Louis, Mo.), Fetal bovine serum were purchased from Arrow labs, 96 well flat bottom tissue culture plates were purchased from Tarson.
(§2) A431, Colo-205, A549 cell lines were grown as adherent cells in DMEM media supplemented with 10% fetal bovine serum, 100 μg/ml penicillin, 200 μg/ml streptomycin, 2 mM L-glutamine, and culture was maintained in a humidified atmosphere with 5% CO2. Stock solution of 10 mg/ml was prepared for test molecules in DMSO. From the stock, various dilutions were made with sterile water to get required concentration. A431, Colo-205, A549 cell lines were seeded at a density of 1×10^4 cells (cell number was determined by Trypan blue exclusion dye method) per each well in 100 μl of DMEM supplemented with 10% FBS. 12 hrs after seeding, above media was replaced with fresh DMEM supplemented with 10% FBS. Then, 10 μl sample from above stock solutions were added to each well in triplicates which gives final concentration of 100, 50, 25, 10 μg/well. The above cells were incubated for 48 hrs at 37° C. with 5% CO2. After 48 hrs incubation the above media was replaced with 100 μl of fresh DMEM with out FBS and to this 10 μl of MTT (5 mg dissolved in 1 ml of PBS) was added and incubated for 3 hrs at 37° C. with 5% CO2. After 3 hrs of incubation, the above media was removed with multi channel pipette, then 200 μl of DMSO was added to each well and incubated at 37° C. for 15 min. Finally, the plate was read at 570 nm using spectrophotometer (Spectra Max, Molecular devices).

A549 (Lung cancer) = test: MTT assay, A549; format: cell-based; settings: Homo sapiens, A549; MTT, 48 hrs; read-out: A549 IC50
Protocol: as §1, §2

[1] = tested on: A431 (Skin cancer) cell lines; test: MTT assay, A431; format: cell-based; settings: Homo sapiens, A-431; MTT, 48 hrs; read-out: A431 cell lines IC50
Protocol: as §1, §2

mice = test: Adenosine mediated bronchoconstriction and lung inflammation in an allergic mouse model; format: in vivo; design: Total count: unit not given here; settings: BAL fluid cells; 100 mg/kg oral
Protocol: Thienopyridines were proven as potent cytotoxic and anti-inflammatory agents in the previous experimental results. In cytotoxic MTT assay, activity of these molecules may be due to the involvement of adenosine receptors. Further, to find the bronchodilatory activity of these moieties and to find the involvement of adenosine receptors in their action, non-invasive and invasive adenosine mediated bronchoconstriction and lung inflammation in an allergic mouse model was performed.
Male mice, 6-8 weeks of age, free of specific pathogens were obtained from National Institute of Nutrition. The animals were maintained on a ragweed-free diet. All experimental protocols used in this study were under a protocol approved by animal ethical committee. Sensitization was performed according to the modified procedure described by Fan et al, 2002. Mice were sensitized on days 1 and 6 with i.p. injections of ragweed allergen (200 μg/200 μl of water for injection). Non-sensitized control animals received only water for injection with the same volumes. Ten days after sensitization, the mice were placed in plexiglas chamber and challenged with 0.5% ragweed or with 0.9% saline as a control for twenty minutes both in the morning and evening for three days. Then mice were divided into different groups consisting of six animals each. The groups including a control without sensitization; a sensitized group and a standard group along with groups of the test molecules were separated. Twenty-four hours after last challenge with ragweed, the mice were given an oral dose of test molecules and theophylline (100 mg/kg body weight) as acacia suspension. Two hours after administration of the oral dose, the mice were challenged with adenosine solution (24 mg/ml). The variation in respiration was recorded after anaesthetizing them with pentobarbitone sodium (0.1 ml 200 mg/ml ip) using kymograph. Then, mice were sacrificed and trachea was cannulated to collect the bronchoalveolar lavage fluid. This was performed by pumping 1 ml phosphate buffered saline into lungs through tracheal cannula and collecting the sample. Analysis of BAL fluid was performed to get the cellular differentials. The BAL fluid was centrifugated at 1500 rpm for six minutes at room temparature. After removing the supernatant, BAL cells were resuspended in 1 ml of phosphate buffered saline. Total cells were then counted manually in a hemocytometer chamber. A differential count of at least 300 cells was made according to the standard morphologic criteria and results were mentioned in table.

Wistar rats = test: Carrageenan induced paw edema model; format: in vivo, rat; settings: Rattus norvegicus, test compounds 100 mg/kg oral, Indomethacin 10 mg/kg oral, 3 hrs after Carrageenan
Protocol: Male Albino Wistar rats of 150-180 grams were used for the experiments.
Anti-inflammatory activity of test compounds was evaluated in Wistar rats employing the method of Winter et al (1963) and Diwan et al (1989). Male Wistar rats were used for the study. […] The different test compounds were administered to the animals in the test group at the dose of 100 mg/kg, by oral route. Animals in the standard group received Indomethacin at the dose of 10 mg/kg, by oral route. All test and standard compounds were administered as 1% gum acacia suspension. Rats in the control group received the vehicle solution without drugs. One hour after test drugs administration, rats in all the groups were challenged with 0.1 ml of 1% Carrageenan in the sub plantar region of right hind paw. A zero hour paw volume was measured for all the rats using digital plethysmometer (Ugo Basile, Italy) before the administration of carrageenan for all groups. Paw volumes were again measured 3 hrs after the challenge of Carrageenan. The percent inhibition of paw volume for each rat in treated groups was calculated by comparing with mean paw volume of control group and expressed as mean (±SE) percent inhibition of paw volume for each test. In a preliminary study the compounds that have shown good activity were evaluated for dose response study by using above procedure.

[2] = tested on: crude intestinal α-glucosidase; test: In-vitro mammalian (rat intestinal) α-glucosidase inhibition assay; format: biochemical
Excerpt: Chemicals: α-Glucosidase [(EC 3.2.1.20) Type I: from bakers yeast], rat intestinal acetone powder (as a source of crude intestinal α-glucosidase), α-amylase [EC 3.2.1.1) Type VI B: from porcine pancreas], p-nitrophenyl α-D-glucopyranoside, 3,5-dinitro salicylic acid, soluble potato starch and 1-deoxyrojirimycine, were purchased from Sigma Chemical Co., St Louis, Mo., USA. Other chemicals of analytical grade were procured from indigenous manufacturers.
In-vitro a-Glucosidase Inhibition Assay: Yeast and intestinal a-glucosidase inhibitory activities were determined as per reported methods (Babu et al., 2004; Mc Dougall et al., 2005). Rat intestinal acetone powder in normal saline (100% w/v) was sonicated properly and the supernatant was used as a source of crude intestinal a-glucosidase after centrifugation. In brief, 20 μl, of test samples (100 mg/ml DMSO solution) were reconstituted in 100 μl of 100 mM-Phosphate buffer (pH 6.8) in a 96-well microplate and incubated with 50 μl yeast a-glucosidase (0.76 μ/ml in same buffer) or crude intestinal a-glucosidase for 5 min before 50-μl substrate (5 mM, […] prepared in same buffer) was added. Release of p-nitrophenyol was measured at 405 nm spectrophotometrically (Spectra Mas Plus 384, Molecular Device corporation, Sunnyvale, Calif., USA) 5 min after incubation with substrate, individual blank for test samples were prepared to correct background absorbance where the substrate was replaced with 50 μl of buffer. The control sample contained 20 μl DMSO in place of test samples. The percentage of enzyme inhibition was calculated as (A−B/A)×100 where A is represents the absorbance of the control without test samples, and B represents the absorbance in the presence of test samples. […] The IC50 values were calculated by applying logarithmic regression analysis from the mean inhibitory values.

IC50 (Colo-205 (Colon cancer)): 100 µg/mL (≈ 406 µM)
IC50 (A549 (Lung cancer)): 43.6 µg/mL (≈ 177 µM)
IC50 [1]: 33.8 µg/mL (≈ 137 µM)
melting point: 220 °C
Mammalian α-glucosidase inhibitory activity (in words) [2]: moderate inhibitory activity
Mammalian α Glucosidase Inhibition (Mean ± S.E) ([2]; highest concentration 5 mg/ml): 46.07 ± 0.9%
Compound: Cc1sc2nc3c(c(N)c2c1C)CCC(C)C3 (stereo not drawn) [BN-3, 2,3,7-Trimethyl-5,6,7,8-tetrahydrothieno[2,3-b]quinolin-4-amine]
Differential count (%) Eosinophils (mice): 14%
Differential count (%) Lymphocytes (mice): 75%
Differential count (%) Monocytes (mice): 15%
Total count (mice): 14.5
change in vivo at 100 mg/kg (Wistar rats; read-out: % Increase in Paw Volume): 81.4 ± 21%
inhibition in vivo at 100 mg/kg (Wistar rats; read-out: % Inhibition (paw volume)): 23.2 ± 5.15%

Source: patent US20110269790A1, “NOVEL THIENOPYRIDINES AS PHARMACOLOGICALLY ACTIVE AGENTS” (priority 2009, published 2011)
